Drawing on ChEMBL document CHEMBL4831494, “Synthesis and evaluation of FAK inhibitors with a 5-fluoro-7H-pyrrolo[2,3-d]pyrimidine scaffold as anti-hepatocellular carcinoma agents” (Eur J Med Chem, 2021), this text covers IC50 for 20 compounds.

pIC50: −log10 of the molar value.

A short description of one assay: cells. As to conditions: Homo sapiens, YY-8103, 48 h.
The target in the next assay is Focal adhesion kinase 1 (Homo sapiens, UniProt Q05397). Nature of the assay: Inhibition of FAK (unknown origin) using Poly(Glu,Tyr) and ATP as substrate measured after 40 mins by Kinase-Glo Plus luminescence assay. In general terms: Kinase-Glo reads ATP consumption through a luciferase reaction.
Chain of Focal adhesion kinase 1 (Q05397 whole entry): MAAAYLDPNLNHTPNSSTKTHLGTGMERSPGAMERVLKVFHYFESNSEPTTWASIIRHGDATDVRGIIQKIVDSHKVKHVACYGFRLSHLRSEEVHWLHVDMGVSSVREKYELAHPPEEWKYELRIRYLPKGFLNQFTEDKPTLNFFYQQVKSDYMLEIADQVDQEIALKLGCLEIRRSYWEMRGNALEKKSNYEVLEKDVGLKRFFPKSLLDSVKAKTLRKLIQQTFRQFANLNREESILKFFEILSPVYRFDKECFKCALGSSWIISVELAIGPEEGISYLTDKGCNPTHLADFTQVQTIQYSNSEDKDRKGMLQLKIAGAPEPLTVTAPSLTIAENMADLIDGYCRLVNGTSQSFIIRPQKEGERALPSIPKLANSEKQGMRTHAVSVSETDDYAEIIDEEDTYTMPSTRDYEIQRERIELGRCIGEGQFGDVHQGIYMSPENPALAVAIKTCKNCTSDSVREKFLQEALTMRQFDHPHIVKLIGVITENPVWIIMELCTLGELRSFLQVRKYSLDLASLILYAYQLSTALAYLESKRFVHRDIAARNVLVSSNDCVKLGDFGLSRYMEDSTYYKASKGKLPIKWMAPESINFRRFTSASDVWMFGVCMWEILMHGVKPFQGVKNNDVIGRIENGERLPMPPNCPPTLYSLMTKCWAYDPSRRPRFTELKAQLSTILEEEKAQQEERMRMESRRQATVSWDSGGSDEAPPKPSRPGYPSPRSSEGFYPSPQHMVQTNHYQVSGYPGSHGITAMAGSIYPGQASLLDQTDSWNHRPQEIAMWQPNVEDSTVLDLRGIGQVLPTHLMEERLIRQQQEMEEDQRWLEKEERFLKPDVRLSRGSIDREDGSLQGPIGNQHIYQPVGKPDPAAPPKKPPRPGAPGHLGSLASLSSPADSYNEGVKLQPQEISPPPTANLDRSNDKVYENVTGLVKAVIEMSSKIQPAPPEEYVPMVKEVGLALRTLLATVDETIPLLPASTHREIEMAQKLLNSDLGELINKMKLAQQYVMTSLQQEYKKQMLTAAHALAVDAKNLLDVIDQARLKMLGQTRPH
A further assay has as its system SMMC-7721. Nature of the assay: cells. As to conditions: Homo sapiens, SMMC-7721, 48 h.

What is called pIC50 is the negative decadic logarithm of the IC50, by convention in mol/L.

Description for SMMC-7721: Antiproliferative activity against human SMMC-7721 cells assessed as inhibition of cell growth measured after 48 hrs by MTT assay

Consider `COc1cccc(Nc2nc(NCc3cccnc3N(C)S(C)(=O)=O)c3c(F)c[nH]c3n2)c1C`, for which the pIC50 in “cells” is under 4.00; on Focal adhesion kinase 1, 7.12; with SMMC-7721 it was under 4.00.

As to `COc1cc(N2CCOCC2)ccc1Nc1nc(NCc2cccnc2N(C)S(C)(=O)=O)c2c(F)c[nH]c2n1`, the pIC50 in “cells” was 4.81; on Focal adhesion kinase 1, 7.64; in the assay with SMMC-7721, 4.82.

Regarding `CC(=O)NCc1cccc(Nc2nc(NCc3cccnc3N(C)S(C)(=O)=O)c3c(F)c[nH]c3n2)c1`, the pIC50 in “cells” was 4.69; on Focal adhesion kinase 1, 7.64; with SMMC-7721, 4.66.

As for `COc1cc(Nc2nc(NCc3cccnc3N(C)S(C)(=O)=O)c3c(F)c[nH]c3n2)cc(OC)c1OC`, the values for the pIC50 in “cells”, on Focal adhesion kinase 1 and in the assay on SMMC-7721 were under 4.00, 7.77 and under 4.00, respectively.

Consider `CN(c1ncccc1CNc1nc(Nc2ccc3c(c2)CC(=O)N3)nc2[nH]cc(Cl)c12)S(C)(=O)=O`, for which the pIC50 in the assay “cells” was 4.88; on Focal adhesion kinase 1 it was 7.68; with SMMC-7721, 4.66.

With `CN(c1ncccc1CNc1nc(Nc2ccc3c(c2)CC(=O)N3)nc2[nH]cc(C#N)c12)S(C)(=O)=O`, the pIC50 is under 4.00 in the assay “cells”, 6.49 on Focal adhesion kinase 1 and under 4.00 with SMMC-7721.

As for `CNC(=O)c1ccccc1Nc1nc(Nc2cccc(CNC(C)=O)c2)nc2[nH]cc(F)c12`, the negative-log IC50 (pIC50) in the assay “cells” was 5.97; on Focal adhesion kinase 1, 7.85; in the assay on SMMC-7721 it was 4.73.

Take `Cc1c[nH]c2nc(Nc3ccc4c(c3)CC(=O)N4)nc(NCc3cccnc3N(C)S(C)(=O)=O)c12`: the pIC50 is 4.91 in “cells”, 7.19 on Focal adhesion kinase 1 and 4.73 with SMMC-7721.

Turning to `COc1ccc(Nc2nc(NCc3cccnc3N(C)S(C)(=O)=O)c3c(F)c[nH]c3n2)cc1OC`, the pIC50 in “cells” was 4.74; at Focal adhesion kinase 1 it was 7.82; in the assay on SMMC-7721, 4.26.

For `CN(c1ncccc1CNc1nc(Nc2cccc(C#N)c2)nc2[nH]cc(F)c12)S(C)(=O)=O`, the values for the negative-log IC50 (pIC50) in “cells”, on Focal adhesion kinase 1 and in the assay with SMMC-7721 were under 4.00, 7.46 and under 4.00, respectively.

Consider `CNC(=O)c1ccccc1Nc1nc(Nc2ccc(N3CCOCC3)cc2OC)nc2[nH]cc(F)c12`, for which the pIC50 in “cells” is 4.85; on Focal adhesion kinase 1, 7.64; in the assay on SMMC-7721, 4.47.

In the case of `CC(=O)Nc1cccc(Nc2nc(NCc3cccnc3N(C)S(C)(=O)=O)c3c(F)c[nH]c3n2)c1`, the pIC50 in “cells” was 4.84; on Focal adhesion kinase 1, 7.68; in the assay on SMMC-7721, 4.80.

For the compound `CN(c1ncccc1CNc1nc(Nc2ccc(N3CCOCC3)cc2)nc2[nH]cc(F)c12)S(C)(=O)=O`, the pIC50 is under 4.00 in “cells”, 7.59 at Focal adhesion kinase 1 and under 4.00 in the assay with SMMC-7721.

For the compound `CN(c1ncccc1CNc1nc(Nc2cccc(CN)c2)nc2[nH]cc(F)c12)S(C)(=O)=O`, the pIC50 in the assay “cells” was under 4.00; on Focal adhesion kinase 1 it was 5.68; with SMMC-7721, under 4.00.

With `CN(c1ncccc1CNc1nc(Nc2ccc3c(c2)CC(=O)N3)nc2[nH]cc(F)c12)S(C)(=O)=O`, the figures for the pIC50 in the assay “cells”, at Focal adhesion kinase 1 and in the assay with SMMC-7721 were 4.62, 7.66 and 4.14, respectively.

For the compound `CN(c1ncccc1CNc1nc(Nc2ccc3c(c2)CC(=O)N3)nc2[nH]ncc12)S(C)(=O)=O`, the pIC50 at Focal adhesion kinase 1 was 6.69.

With `CN1CCN(c2ccc(Nc3nc(NCc4cccnc4N(C)S(C)(=O)=O)c4c(F)c[nH]c4n3)cc2)CC1`, the values for the pIC50 in “cells”, on Focal adhesion kinase 1 and in the assay with SMMC-7721 were 5.62, 7.89 and 4.86, respectively.

For `CNC(=O)c1ccccc1Nc1nc(Nc2ccc3c(c2)CC(=O)N3)nc2[nH]cc(F)c12`, the pIC50 in “cells” is 5.33; at Focal adhesion kinase 1, 7.66; in the assay with SMMC-7721, 5.00.

With `CN(c1ncccc1CNc1nc(Nc2ccc(F)c(Cl)c2)nc2[nH]cc(F)c12)S(C)(=O)=O`, the pIC50 in the assay “cells” was 4.08; at Focal adhesion kinase 1, 7.39; in the assay on SMMC-7721, under 4.00.

As for `CN(c1ncccc1CNc1nc(Nc2ccc3c(c2)CC(=O)N3)nc2[nH]ccc12)S(C)(=O)=O`, the pIC50 in “cells” is 4.87; at Focal adhesion kinase 1 it was 7.26; in the assay with SMMC-7721, 4.28.
